From article PMC6423499, “SPR-Measured Dissociation Kinetics of PROTAC Ternary Complexes Influence Target Degradation Rate” (ACS Chemical Biology, 2019)
Where two headings read alike, the source gives them in different places. Marks after values point to notes of the source that are not given here.

What was measured:
VHL + Brd3^BD1 [1] = system: VHL + Brd3^BD1; design: method as in PMID 28288108; settings: ternary + Brd3^BD1, ITC, ref [2]; cited from earlier work
VHL + Brd2^BD2 [2] = system: VHL + Brd2^BD2; design: method as in PMID 28288108; settings: ternary + Brd2^BD2, ITC, ref [2]; cited from earlier work
VHL + Brd3^BD2 [3] = system: VHL + Brd3^BD2; design: method as in PMID 28288108; settings: ternary + Brd3^BD2, ITC, ref [2]; cited from earlier work
VHL + Brd2^BD1 [4] = system: VHL + Brd2^BD1; design: method as in PMID 28288108; settings: ternary + Brd2^BD1, ITC, ref [2]; cited from earlier work
VHL + Brd4^BD1 [5] = system: VHL + Brd4^BD1; design: method as in PMID 28288108; settings: ternary + Brd4^BD1, ITC, ref [2]; cited from earlier work
VHL [6] = target: T1, VHL (Homo sapiens, UniProt P40337); assay: SPR binary binding of PROTAC to immobilized VHL; settings: binary (PROTAC alone), 285.15 K
T1 construct: VHL (54-213); His6 with TEV cleavage site (N, cleaved yes); made in house; host or cells: E. coli BL21(DE3)

Brd4^BD2 = Brd4^BD2 (Homo sapiens, UniProt O60885); assay: Reversed-format SPR, PROTAC binary binding to immobilized Brd4^BD2; settings: qualitative, Figures S4 and S6
VHL + Brd4^BD2 [7] = target: T2, VHL + Brd4^BD2 (Homo sapiens, UniProt O60885+P40337); assay: SPR ternary binding of PROTAC:Brd4^BD2 complex to immobilized VHL; settings: for ΔΔG (ΔG^ternary – ΔG^binary) / α (cooperativity, KD^binary/KD^ternary): SPR; for Kd / koff / kon / t1/2 (dissociative half-life, ln2/koff): ternary (+ Brd4^BD2), 298.15 K; for dissociation kinetics faster than the VHL/MZ1/Brd4^BD2 complex: ternary complex with Brd4^BD2
T2 construct: VHL (54-213); Brd4BD2 (333-460); His6 with TEV cleavage site (N, cleaved yes); made in house; host or cells: E. coli BL21(DE3) (VCB)

VHL [8] = settings: binary, ITC at 298.15 K, cited from earlier work
VHL + Brd4^BD2 [9] = settings: cited from earlier work; for Kd: ternary + Brd4^BD2, ITC at 298.15 K; for ΔΔG (ITC) / α (ITC): ternary + Brd4^BD2, ITC
VHL + Brd3^BD2 [10] = target: T3, VHL + Brd3^BD2 (Homo sapiens, UniProt P40337+Q15059); assay: SPR ternary binding of PROTAC:Brd3^BD2 complex to immobilized VHL
T3 construct: VHL (54-213); Brd3BD2 (306-416); His6 with TEV cleavage site (N, cleaved yes); made in house; host or cells: E. coli BL21(DE3) (VCB)

VHL + Brd2^BD2 [11] = target: T4, VHL + Brd2^BD2 (Homo sapiens, UniProt P25440+P40337); assay: SPR ternary binding of PROTAC:Brd2^BD2 complex to immobilized VHL
T4 construct: VHL (54-213); Brd2BD2 (344-455); His6 with TEV cleavage site (N, cleaved yes); made in house; host or cells: E. coli BL21(DE3) (VCB)

VHL + Brd4^BD1 [12] = target: T5, VHL + Brd4^BD1 (Homo sapiens, UniProt O60885+P40337); assay: SPR ternary binding of PROTAC:Brd4^BD1 complex to immobilized VHL
T5 construct: VHL (54-213); Brd4BD1 (44-168); His6 with TEV cleavage site (N, cleaved yes); made in house; host or cells: E. coli BL21(DE3) (VCB)

VHL + Brd2^BD1 [13] = target: T6, VHL + Brd2^BD1 (Homo sapiens, UniProt P25440+P40337); assay: SPR ternary binding of PROTAC:Brd2^BD1 complex to immobilized VHL
T6 construct: VHL (54-213); Brd2BD1 (71-194); His6 with TEV cleavage site (N, cleaved yes); made in house; host or cells: E. coli BL21(DE3) (VCB)

VHL + Brd3^BD1 [14] = target: T7, VHL + Brd3^BD1 (Homo sapiens, UniProt P40337+Q15059); assay: SPR ternary binding of PROTAC:Brd3^BD1 complex to immobilized VHL
T7 construct: VHL (54-213); Brd3BD1 (24-144); His6 with TEV cleavage site (N, cleaved yes); made in house; host or cells: E. coli BL21(DE3) (VCB)

VHL + Brd4BD2G386E = target: T8, VHL + Brd4BD2G386E (Homo sapiens, UniProt O60885+P40337, G386E); assay: SPR ternary binding of PROTAC:Brd4^BD2 G386E point mutant complex to immobilized VHL
T8 construct: VHL (54-213); Brd4BD2 (333-460); His6 with TEV cleavage site (N, cleaved yes); made in house; host or cells: E. coli BL21(DE3) (VCB)

VHL + Brd3BD2E344G = target: T9, VHL + Brd3BD2E344G (Homo sapiens, UniProt P40337+Q15059, E344G); assay: SPR ternary binding of PROTAC:Brd3^BD2 E344G point mutant complex to immobilized VHL
T9 construct: VHL (54-213); Brd3BD2 (306-416); His6 with TEV cleavage site (N, cleaved yes); made in house; host or cells: E. coli BL21(DE3) (VCB)

VHL + Brd2BD2G382E = target: T10, VHL + Brd2BD2G382E (Homo sapiens, UniProt P25440+P40337, G382E); assay: SPR ternary binding of PROTAC:Brd2^BD2 G382E point mutant complex to immobilized VHL
T10 construct: VHL (54-213); Brd2BD2 (344-455); His6 with TEV cleavage site (N, cleaved yes); made in house; host or cells: E. coli BL21(DE3) (VCB)

[15] = steady-state affinity fit (SSA)
[16] = ternary + Brd4^BD2, kinetic fit
[17] = ternary + Brd4^BD2, steady-state affinity fit (SSA)

| Structure (SMILES) | Kd (VHL [6]; multicycle, kinetic fit) | Kd (VHL [6]; [15]) | binary target affinity (for Brd4) (Brd4^BD2) | ΔΔG (ΔG^ternary – ΔG^binary) (VHL + Brd4^BD2 [7]; [16]) | α (cooperativity, KD^binary/KD^ternary) (VHL + Brd4^BD2 [7]; [16]) | ΔΔG (ΔG^ternary – ΔG^binary) (VHL + Brd4^BD2 [7]; [17]) | α (cooperativity, KD^binary/KD^ternary) (VHL + Brd4^BD2 [7]; [17]) | Kd (VHL + Brd4^BD2 [7]; single-cycle, kinetic fit) | koff (VHL + Brd4^BD2 [7]; single-cycle, kinetic fit) | kon (VHL + Brd4^BD2 [7]; single-cycle, kinetic fit) | t1/2 (dissociative half-life, ln2/koff) (VHL + Brd4^BD2 [7]; single-cycle, kinetic fit) | Kd (VHL + Brd4^BD2 [7]; [15]) | dissociation kinetics faster than the VHL/MZ1/Brd4^BD2 complex (VHL + Brd4^BD2 [7]) | Kd (VHL [8]; ref [10]) | Kd (VHL + Brd4^BD2 [9]; ref [10]) | ΔΔG (ITC) (VHL + Brd4^BD2 [9]; ref [10]) | α (ITC) (VHL + Brd4^BD2 [9]; ref [10]) | also measured |
| --- | --- | --- | --- | --- | --- | --- | --- | --- | --- | --- | --- | --- | --- | --- | --- | --- | --- | --- |
| Cc1ncsc1-c1ccc(CNC(=O)[C@@H]2C[C@@H](O)CN2C(=O)[C@@H](NC(=O)COCCOCCOCCNC(=O)C[C@@H]2N=C(c3ccc(Cl)cc3)c3c(sc(C)c3C)-n3c(C)nnc32)C(C)(C)C)cc1 [MZ1] | – | – | – | – | – | – | – | – | – | – | – | – | – | – | – | – | – | ΔΔG (ITC) (VHL + Brd3^BD1 [1]): –0.8 ^d kcal/mol; α (ITC) (VHL + Brd3^BD1 [1]): 3.5 ^d; ΔΔG (ITC) (VHL + Brd2^BD2 [2]): –0.5 ^d kcal/mol; α (ITC) (VHL + Brd2^BD2 [2]): 2.3 ^d; ΔΔG (ITC) (VHL + Brd3^BD2 [3]): –1.5 ^d kcal/mol; α (ITC) (VHL + Brd3^BD2 [3]): 10.7 ^d; ΔΔG (ITC) (VHL + Brd2^BD1 [4]): –0.6 ^d kcal/mol; α (ITC) (VHL + Brd2^BD1 [4]): 2.9 ^d; ΔΔG (ITC) (VHL + Brd4^BD1 [5]): –0.5 ^d kcal/mol; α (ITC) (VHL + Brd4^BD1 [5]): 2.3 ^d |
| CC(=O)N1c2ccc(-c3ccc(C(=O)NCCOCCOCCOCCOCC(=O)N[C@H](C(=O)N4C[C@H](O)C[C@H]4C(=O)NCc4ccc(-c5scnc5C)cc4)C(C)(C)C)cc3)cc2[C@H](Nc2ccc(Cl)cc2)C[C@@H]1C [MZP55] | 69 nM | 188 nM | high | +0.7 kcal/mol | 0.4 | +0.5 kcal/mol | 0.5 | 185 nM | 0.47 s⁻¹ | 27 M^–1 s^–1 × 10^5 | 1 s | 134 nM | > 80 fold | 109 nM | 183 nM | +0.3 ^e kcal/mol | 0.6 ^e | koff (VHL [6]; multicycle, kinetic fit): 0.015 s⁻¹; kon (VHL [6]; multicycle, kinetic fit): 2.7 M^–1 s^–1 × 10^5; t1/2 (dissociative half-life, ln2/koff) (VHL [6]; multicycle, kinetic fit): 48 s; ΔΔG (ITC) (VHL + Brd4^BD2 [9]; ref [10], listed as MZP 55): +0.3 kcal/mol; α (ITC) (VHL + Brd4^BD2 [9]; ref [10], listed as MZP 55): 0.6 |
| CC(=O)N[C@H](C(=O)N1C[C@H](O)C[C@H]1C(=O)NCc1ccc(-c2scnc2C)cc1)C(C)(C)SCCCCCCNC(=O)C[C@@H]1N=C(c2ccc(Cl)cc2)c2c(sc(C)c2C)-n2c(C)nnc21 [AT1] | 110 nM | – | weaker | – | 4.7 | – | – | 24 nM | – | – | – | – | – | – | – | – | – | ΔΔG (ΔG^ternary – ΔG^binary) (VHL + Brd3^BD2 [10]): +0.4 kcal/mol; α (cooperativity, KD^binary/KD^ternary) (VHL + Brd3^BD2 [10]): 0.7; α (cooperativity, KD^binary/KD^ternary) (VHL + Brd2^BD2 [11]; SPR, ternary + Brd2^BD2): 4.1; Kd (VHL + Brd2^BD2 [11]; ternary (+ Brd2^BD2), 298.15 K, single-cycle, kinetic fit): 27 nM; ΔΔG (ΔG^ternary – ΔG^binary) (VHL + Brd4^BD1 [12]): +1.1 kcal/mol; α (cooperativity, KD^binary/KD^ternary) (VHL + Brd4^BD1 [12]): 0.2; ΔΔG (ΔG^ternary – ΔG^binary) (VHL + Brd2^BD1 [13]): +0.9 kcal/mol; α (cooperativity, KD^binary/KD^ternary) (VHL + Brd2^BD1 [13]): 0.3; ΔΔG (ΔG^ternary – ΔG^binary) (VHL + Brd3^BD1 [14]): +0.2 kcal/mol; α (cooperativity, KD^binary/KD^ternary) (VHL + Brd3^BD1 [14]): 0.8; ΔΔG (ΔG^ternary – ΔG^binary) (VHL + Brd4BD2G386E): +0.2 kcal/mol; α (cooperativity, KD^binary/KD^ternary) (VHL + Brd4BD2G386E): 0.8; α (cooperativity, KD^binary/KD^ternary) (VHL + Brd3BD2E344G): 3.4; Kd (VHL [8]; ref [2]): 335 nM; ΔΔG (ΔG^ternary – ΔG^binary) (VHL + Brd2BD2G382E): +0.3 kcal/mol; α (cooperativity, KD^binary/KD^ternary) (VHL + Brd2BD2G382E): 0.7; Kd (VHL + Brd4^BD2 [9]; ref [2]): 46 nM |
| CC(=O)N1c2ccc(-c3ccc(C(=O)NCCOCCOCC(=O)N[C@H](C(=O)N4C[C@H](O)C[C@H]4C(=O)NCc4ccc(-c5scnc5C)cc4)C(C)(C)C)cc3)cc2[C@H](Nc2ccc(Cl)cc2)C[C@@H]1C [MZP61] | – | 104 nM | high | +1.0 kcal/mol | 0.2 | +0.6 kcal/mol | 0.4 | 465 nM | 1 s⁻¹ | 30 M^–1 s^–1 × 10^5 | 1 s | 248 nM | > 80 fold | 116 nM | 781 nM | +1.1 ^e kcal/mol | 0.1 ^e | ΔΔG (ITC) (VHL + Brd4^BD2 [9]; ref [10], listed as MZP 61): +1.1 kcal/mol |
